Measurements: US20250098679A1, “HERBICIDAL PYRIDONE DERIVATIVES” (SYNGENTA CROP PROTECTION AG, priority 2021, published 2025)

Tests used:
Assay type in all cases: in vivo
Zea mays (ZEAMX) [1] = assay: Post-emergence Test, Zea mays (ZEAMX); design: key to percentage damage caused to the plant, ZEAMX (five-point scale): 5=81-100%, 4=61-80%, 3=41-60%, 2=21-40%, 1=0-20% damage; conditions: evaluated after 13 days
Procedure, shortened: (§1)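 Tested at 1000 g/ha unless otherwise stated. Plants were held at 24/16 °C day/night with a 14 h light period. Percent damage was read at 13 days and reported in five bands.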

[2] = test system: Amaranthus retoflexus (AMARE); assay: Pre-emergence Test, Amaranthus retoflexus (AMARE); conditions: 1000 g/ha, evaluated after 13 days
[3] = test system: Amaranthus palmeri (AMAPA); assay: Pre-emergence Test, Amaranthus palmeri (AMAPA); conditions: 1000 g/ha, evaluated after 13 days
[4] = test system: Amaranthus palmeri (AMAPA); assay: Post-emergence Test, Amaranthus palmeri (AMAPA); design: key: 5=81-100%, 4=61-80%, 3=41-60%, 2=21-40%, 1=0-20% damage; conditions: evaluated after 13 days
Procedure, shortened: as §1

Setaria faberi (SETFA) [5] = assay: Pre-emergence Test, Setaria faberi (SETFA); conditions: 1000 g/ha, evaluated after 13 days
[6] = test system: Ipomoea hederacea (IPOHE); assay: Post-emergence Test, Ipomoea hederacea (IPOHE); design: key to percentage damage caused to the plant, IPOHE (five-point scale): 5=81-100%, 4=61-80%, 3=41-60%, 2=21-40%, 1=0-20% damage; conditions: evaluated after 13 days
Procedure, shortened: as §1

Setaria faberi (SETFA) [7] = assay: Post-emergence Test, Setaria faberi (SETFA); design: key to percentage damage caused to the plant, SETFA (five-point scale): 5=81-100%, 4=61-80%, 3=41-60%, 2=21-40%, 1=0-20% damage; conditions: evaluated after 13 days
Procedure, shortened: as §1

[8] = test system: Ipomoea hederacea (IPOHE); assay: Pre-emergence Test, Ipomoea hederacea (IPOHE); conditions: 1000 g/ha, evaluated after 13 days
[9] = test system: Echinochloa crus-galli (ECHCG); assay: Pre-emergence Test, Echinochloa crus-galli (ECHCG); conditions: 1000 g/ha, evaluated after 13 days
[10] = test system: Amaranthus retoflexus (AMARE); assay: Post-emergence Test, Amaranthus retoflexus (AMARE); design: key to percentage damage caused to the plant, AMARE (five-point scale): 5=81-100%, 4=61-80%, 3=41-60%, 2=21-40%, 1=0-20% damage; conditions: evaluated after 13 days
Procedure, shortened: as §1

Zea mays (ZEAMX) [11] = assay: Pre-emergence Test, Zea mays (ZEAMX); conditions: 1000 g/ha, evaluated after 13 days
[12] = test system: Echinochloa crus-galli (ECHCG); assay: Post-emergence Test, Echinochloa crus-galli (ECHCG); design: key to percentage damage caused to the plant, ECHCG (five-point scale): 5=81-100%, 4=61-80%, 3=41-60%, 2=21-40%, 1=0-20% damage; conditions: evaluated after 13 days
Procedure, shortened: as §1

Row | Structure (SMILES) | percentage damage caused to the plant, ZEAMX (five-point scale) (Zea mays (ZEAMX) [1]; 250 g/Ha) | percentage damage caused to the plant, ZEAMX (five-point scale) (Zea mays (ZEAMX) [1]; 1000 g/ha) | Pre-emergence Test AMARE, percentage damage caused to the plant (five-point scale) [2] | Pre-emergence Test AMAPA, percentage damage caused to the plant (five-point scale) [3] | percentage damage caused to the plant, AMAPA (five-point scale) ([4]; 250 g/Ha) | percentage damage caused to the plant, AMAPA (five-point scale) ([4]; 1000 g/ha) | Pre-emergence Test SETFA, percentage damage caused to the plant (five-point scale) (Setaria faberi (SETFA) [5]) | percentage damage caused to the plant, IPOHE (five-point scale) ([6]; 250 g/Ha) | percentage damage caused to the plant, IPOHE (five-point scale) ([6]; 1000 g/ha) | percentage damage caused to the plant, SETFA (five-point scale) (Setaria faberi (SETFA) [7]; 250 g/Ha) | percentage damage caused to the plant, SETFA (five-point scale) (Setaria faberi (SETFA) [7]; 1000 g/ha) | Pre-emergence Test IPOHE, percentage damage caused to the plant (five-point scale) [8] | Pre-emergence Test ECHCG, percentage damage caused to the plant (five-point scale) [9] | percentage damage caused to the plant, AMARE (five-point scale) ([10]; 250 g/Ha) | percentage damage caused to the plant, AMARE (five-point scale) ([10]; 1000 g/ha) | Pre-emergence Test ZEAMX, percentage damage caused to the plant (five-point scale) (Zea mays (ZEAMX) [11]) | percentage damage caused to the plant, ECHCG (five-point scale) ([12]; 250 g/Ha) | percentage damage caused to the plant, ECHCG (five-point scale) ([12]; 1000 g/ha)
1 | CCn1c(Cn2ccc(OC(F)F)n2)cc(=O)c(C(=O)O)c1-c1ccc(Cl)c(Cl)c1 [Compound 37, 2-(3,4-dichlorophenyl)-6-[[3-(difluoromethoxy)pyrazol-1-yl]methyl]-1-ethyl-4-oxo-pyridine-3-carboxylic acid] | 1 (1=0-20%) | 4 (4=61-80%) | 1 (1=0-20%) | 2 (2=21-40%) | 2 (2=21-40%) | 4 (4=61-80%) | 5 (5=81-100%) | 4 (4=61-80%) | 2 (2=21-40%) | 4 (4=61-80%) | 5 (5=81-100%) | 4 (4=61-80%) | 5 (5=81-100%) | 2 (2=21-40%) | 1 (1=0-20%) | 5 (5=81-100%) | 4 (4=61-80%) | 4 (4=61-80%)
2 | CCn1c(Cn2nc(C)cc2C)cc(=O)c(C(=O)O)c1-c1ccc(Cl)c(Cl)c1 [Compound 39, 2-(3,4-dichlorophenyl)-6-[(3,5-dimethylpyrazol-1-yl)methyl]-1-ethyl-4-oxo-pyridine-3-carboxylic acid] | 0 | 4 (4=61-80%) | 1 (1=0-20%) | 1 (1=0-20%) | 1 (1=0-20%) | 2 (2=21-40%) | 3 (3=41-60%) | 2 (2=21-40%) | 2 (2=21-40%) | 1 (1=0-20%) | 4 (4=61-80%) | 2 (2=21-40%) | 4 (4=61-80%) | 2 (2=21-40%) | 2 (2=21-40%) | 0 | 3 (3=41-60%) | 4 (4=61-80%)
3 | Cn1c(Cn2ccc(C(F)(F)F)n2)cc(=O)c(C(=O)O)c1-c1ccc(Cl)c(Cl)c1 [Compound 33, 2-(3,4-dichlorophenyl)-1-methyl-4-oxo-6-[[3-(trifluoromethyl)pyrazol-1-yl]methyl]pyridine-3-carboxylic acid] | 1 (1=0-20%) | 2 (2=21-40%) | 0 | 3 (3=41-60%) | 1 (1=0-20%) | 2 (2=21-40%) | 5 (5=81-100%) | 4 (4=61-80%) | 3 (3=41-60%) | 3 (3=41-60%) | 4 (4=61-80%) | 0 | 5 (5=81-100%) | 1 (1=0-20%) | 3 (3=41-60%) | 0 | 3 (3=41-60%) | 4 (4=61-80%)
